Experimental data published in ChEMBL document CHEMBL1138312, “Design and synthesis of indole-based peptoids as potent noncompetitive antagonists of transient receptor potential vanilloid 1” (J Med Chem, 2007).
pIC50: −log10 of the molar value.

What was measured:
[1] = target: Transient receptor potential cation channel subfamily V member 1 (Rattus norvegicus, UniProt O35433); assay: Blockade of capsaicin-activated rat TRPV1 channel expressed in Xenopus oocytes; type: cell-based, Oocyte
[2] = target: Glutamate NMDA receptor; Grin1/Grin2a (Rattus norvegicus, UniProt P35439+Q00959); assay: Blockade of L-glutamate/glycine-activated rat NR1/NR2A NMDA receptor expressed in Xenopus oocytes; type: cell-based, Oocyte
Sequence of Glutamate NMDA receptor; Grin1/Grin2a (Q00959 whole entry, other chains not shown): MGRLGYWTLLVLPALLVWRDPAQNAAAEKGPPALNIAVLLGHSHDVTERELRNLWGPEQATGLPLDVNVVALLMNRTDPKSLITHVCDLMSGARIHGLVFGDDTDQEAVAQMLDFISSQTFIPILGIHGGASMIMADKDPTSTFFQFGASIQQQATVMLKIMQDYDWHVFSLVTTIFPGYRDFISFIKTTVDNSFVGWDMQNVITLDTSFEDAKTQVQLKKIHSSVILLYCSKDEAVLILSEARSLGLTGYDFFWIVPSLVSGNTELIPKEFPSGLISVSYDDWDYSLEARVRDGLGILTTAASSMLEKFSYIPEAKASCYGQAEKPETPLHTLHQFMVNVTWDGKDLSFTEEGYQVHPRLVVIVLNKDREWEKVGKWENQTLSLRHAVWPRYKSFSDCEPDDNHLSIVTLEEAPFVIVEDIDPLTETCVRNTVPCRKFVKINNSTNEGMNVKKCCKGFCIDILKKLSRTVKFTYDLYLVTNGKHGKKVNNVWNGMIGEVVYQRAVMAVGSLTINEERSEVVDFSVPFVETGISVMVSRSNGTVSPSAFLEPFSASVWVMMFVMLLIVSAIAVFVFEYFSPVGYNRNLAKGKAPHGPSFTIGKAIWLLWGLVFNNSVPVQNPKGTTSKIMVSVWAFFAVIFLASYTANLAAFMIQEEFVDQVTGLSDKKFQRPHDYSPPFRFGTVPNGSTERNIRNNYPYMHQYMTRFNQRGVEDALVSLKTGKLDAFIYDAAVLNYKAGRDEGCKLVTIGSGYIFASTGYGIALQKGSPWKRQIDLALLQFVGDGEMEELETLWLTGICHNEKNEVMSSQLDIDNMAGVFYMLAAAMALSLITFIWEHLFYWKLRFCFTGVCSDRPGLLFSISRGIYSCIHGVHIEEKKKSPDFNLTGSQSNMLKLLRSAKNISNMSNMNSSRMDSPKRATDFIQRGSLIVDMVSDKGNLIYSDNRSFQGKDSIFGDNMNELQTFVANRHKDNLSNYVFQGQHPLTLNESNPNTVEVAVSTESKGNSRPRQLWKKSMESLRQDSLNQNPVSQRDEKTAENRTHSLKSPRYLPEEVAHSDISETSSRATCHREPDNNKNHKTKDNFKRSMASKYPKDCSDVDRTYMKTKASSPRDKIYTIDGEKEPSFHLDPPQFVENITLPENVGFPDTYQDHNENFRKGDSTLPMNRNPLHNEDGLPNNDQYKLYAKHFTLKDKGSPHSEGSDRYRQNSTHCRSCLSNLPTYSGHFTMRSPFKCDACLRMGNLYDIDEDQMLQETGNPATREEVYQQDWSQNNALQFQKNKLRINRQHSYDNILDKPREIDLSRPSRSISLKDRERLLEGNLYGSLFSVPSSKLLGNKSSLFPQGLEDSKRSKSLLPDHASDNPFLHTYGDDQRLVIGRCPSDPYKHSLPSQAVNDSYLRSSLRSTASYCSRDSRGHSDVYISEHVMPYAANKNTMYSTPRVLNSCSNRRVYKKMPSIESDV

Sequence of Transient receptor potential cation channel subfamily V member 1 (O35433 whole entry): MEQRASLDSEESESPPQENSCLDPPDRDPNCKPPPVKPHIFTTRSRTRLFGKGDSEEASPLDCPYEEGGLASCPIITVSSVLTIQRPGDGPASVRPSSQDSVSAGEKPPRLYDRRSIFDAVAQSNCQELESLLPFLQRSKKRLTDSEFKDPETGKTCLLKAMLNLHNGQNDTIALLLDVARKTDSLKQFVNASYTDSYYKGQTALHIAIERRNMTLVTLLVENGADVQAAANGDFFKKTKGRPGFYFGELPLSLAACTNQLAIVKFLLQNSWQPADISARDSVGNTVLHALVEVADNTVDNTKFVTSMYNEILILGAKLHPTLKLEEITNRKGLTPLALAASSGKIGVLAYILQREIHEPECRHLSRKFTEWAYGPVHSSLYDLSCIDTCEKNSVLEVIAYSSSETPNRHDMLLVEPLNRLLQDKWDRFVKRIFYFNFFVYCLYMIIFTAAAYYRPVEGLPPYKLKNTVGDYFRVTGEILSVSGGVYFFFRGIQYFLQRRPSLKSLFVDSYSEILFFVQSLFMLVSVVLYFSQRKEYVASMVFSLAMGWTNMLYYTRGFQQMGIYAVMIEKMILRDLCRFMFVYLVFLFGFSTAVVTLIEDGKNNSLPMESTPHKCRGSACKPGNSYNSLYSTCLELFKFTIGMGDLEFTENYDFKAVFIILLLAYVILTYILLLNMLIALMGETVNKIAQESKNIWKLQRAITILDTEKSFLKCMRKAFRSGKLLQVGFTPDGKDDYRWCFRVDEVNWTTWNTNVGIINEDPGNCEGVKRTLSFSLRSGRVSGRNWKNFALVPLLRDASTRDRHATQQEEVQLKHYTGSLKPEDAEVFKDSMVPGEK

Structure (SMILES)	pIC50 [1]	pIC50 [2]
NC(=O)CN(CCc1ccc(Cl)cc1Cl)C(=O)CN(CCc1c[nH]c2ccccc12)C(=O)[C@@H](N)CCCN=C(N)N	6.28	4.77
N=C(N)NCCC[C@H](N)C(=O)N(CCc1ccc(Cl)cc1Cl)CC(=O)N(CCc1ccc(Cl)cc1Cl)CC(N)=O	6.15	4.82
NCCCCCCN(CCc1ccc(Cl)cc1Cl)CC(=O)N(CCc1ccc(Cl)cc1Cl)CC(N)=O	6.40	5.52
N=C(N)NCCC[C@H](N)C(=O)N(CCc1c[nH]c2ccccc12)CC(=O)N(CCc1c[nH]c2ccccc12)CC(N)=O	5.88	3.68
N=C(N)NCCC[C@H](N)C(=O)N(CCc1ccc(Cl)cc1Cl)CC(=O)N(CCc1c[nH]c2ccccc12)CC(N)=O	6.74	3.78
NC(N)=NCCC[C@H](N)C(=O)N(CCc1c[nH]c2ccccc12)CC(=O)NCCc1c[nH]c2ccccc12		4.74
N=C(N)NCCC[C@H](N)C(=O)N(CCc1ccc(Cl)cc1Cl)CC(=O)NCCc1ccc(Cl)cc1Cl	6.77	6.10
NC(N)=NCCC[C@H](N)C(=O)N[C@H]1C[C@@H](C(=O)NCCc2ccc(Cl)cc2Cl)N(Cc2ccc(Cl)cc2Cl)C1	6.15	5.10
